“And” between values parts separate entries of the source, which are not always exact repeats. Equal entries are not always repeated. Where two headings read alike, the source gives them in different places.
Key:
[1] = system: BuChE; conditions: cited from earlier work
[2] = system: HT-22 murine hippocampal cell line; assay: cells; type: cell-based; conditions: glutamate 5 mM
Procedure: (§1) The neuroprotective properties of the compounds were assessed using the HT-22 murine hippocampal cell line. This is an immortalized cell line which has become widely used in recent years to study oxidative stress induced neuronal cell death. The cell line lacks ionotropic glutamate receptors but is sensitive to glutamate cytotoxicity via non-receptor mediated pathway(s) that are to a significant extent propagated by reactive oxygen species. The cell line appeared to be a good cellular model for measuring an anti-oxidant mediated neuroprotective in vitro effect of the compounds [26, 27, 28].
(§2) Test compounds in DMSO solution (0.1%) were added to HT-22 cell culture for (24 h), using four repeats in three independent experiments. […] Lipoic acid and ferulic acid were also non-toxic in the same concentration range. Next, the neuronal cell culture was treated with glutamate (5 mM) which caused about 90% cell death as reflected in the MTT assay. Quercetin served as positive control and caused rescue of cell death to around 80% cell viability at 25 µM. Cells were co-treated with test compounds 7a–d and 8a–d at 1, 5, 10 and 25 µM in four repeats and three independent experiments. Lipoic and ferulic acid were tested in parallel experiments in the same concentration range. Lipoic acid was active in the range 10–25 µM but ferulic acid was not active (data not shown). […] The reasons for this unexpected variation in efficacy is not clear but may be due to (intra)cellular access.
This test was performed as reported before. Briefly, HT-22 cells were seeded in 96-well plates at a density of 5 × 10^3 per well and cultured for 24 h. Subsequently, cells were incubated for another 24 h either with medium or test compounds with potential cytoprotective activity either in the absence (to test for toxic effects) or the presence (to test for the protective potential against glutamate induced oxidative stress) of 5 mM glutamate. MTT solution (4 mg/mL in PBS) was diluted 1:10 with medium and the mixture was added to the wells after removal of the previous medium. The plates were then incubated for another 3 h. Then, the supernatant was removed and 100 µL of lysis buffer (10% SDS, pH 4.1) were added to the wells. Absorbance at 560 nm was determined on the next day using a multiwell plate photometer (Spectra Fluor Plus, Tecan, Crailsheim, Germany). The results of these cell viability assays were expressed as percentages relative to untreated control cells. All compounds were dissolved in DMSO and diluted with fresh medium, with the DMSO concentration always below 0.1% (v/v).
Data of all MTT tests were expressed as means ± SD of at least three independent experiments (in quadruplicates). Data were subjected to one-way ANOVA followed by Dunnett’s multiple comparison post-test using GraphPad Prism 5 Software. (Levels of significance ** p < 0.01; *** p < 0.001).

[3] = target: T1, BuChE purified from human plasma (Homo sapiens, UniProt P06276); assay: Ellman assay, BuChE inhibition; type: biochemical; conditions: for Selectivity: IC50 AChE/IC50 BuChE, 100 µM used for AChE where % inhibition at 100 µM was <50%; for IC50: n = 3
T1 construct: BuChE purified from human plasma; from tissue; host or cells: human plasma
Procedure: (§3) Inhibitory activities of the isosorbide-2-carbamates bearing a lipoate ester (7a–d), a ferulate ester (8a–d) ester or 5-unsubstituted compounds (6a–d) was measured using the standard Ellman spectrophotometric method using AChE from electric eel or BuChE purified from human plasma with acetylthiocholine or butyrylthiocholine as appropriate (Table 1). […] These values are in the potency range of clinically used cholinesterase inhibitors. […] In most cases, it was not possible to achieve a maximal inhibition of AChE because the solubility threshold was lower than the concentration required for maximal inhibition. In previous studies, we noticed that phenyl carbamates of isosorbide are relatively weak inhibitors of BuChE compared with the benzyl and alkyl carbamates, but that AChE is relatively tolerant of isosorbide phenyl carbamates. We published a paper showing that isosorbide-2,5-diaryl esters are moderately potent substrate-inhibitors of AChE [25]. […] The effect of (appropriate) 5-ester substitution in the series of isosorbide compounds already published is to increase potency by promoting affinity in the pre-carbamylation state, reducing the pseudo Michaelis constant for the carbamate substrate (referred to as Kc in carbamylation literature). When the intrinsic affinity of the substrate carbamate is higher, there is a relatively greater proportion of the unimolecular E. carbamate complex. In the present case, the anti-oxidant ester functionality directly contributes to potency by increasing substrate affinity. […] Indeed, ester hydrolysis at the isosorbide C-5, which is slow, would produce the ferulic acid or lipoic acid byproduct.
(§4) Cholinesterase activity was measured using the Ellman spectrophotometric method. HuBuChE activity was measured in replicate samples using a 96-well plate reader. The total volume of test solution in each well was 250 μL. This consisted of 25 μL of plasma solution, 150 μL of phosphate buffer pH 8.0, 25 μL of DTNB solution (0.5 mM), and 25 μL of acetonitrile:distilled water (1:1). The 96-well plate was incubated for 30 min before 25 μL of butyrylthiocholine iodide (BTCI) solution (0.5 mM) was added, and the reaction was measured at 405 nm over 5 min using an Anthos bt2 plate reader. For the determination of AChE activity, 25 μL of electric eel AChE solution and 25 μL of acetylthiocholine iodide (ATCI) solution were used instead of the plasma solution and BTCI solution. For determination of enzyme inhibition, 25 μL of an inhibitor solution was added to the test solution instead of the acetonitrile:water (1:1) solution. Inhibitors were added 30 min before determination of remaining enzyme activity. IC50 values were calculated using GraphPad Prism 4.02 software (GraphPad Software Inc., La Jolla, CA, USA).

[4] = target: T2, AChE from electric eel (Electrophorus electricus, UniProt O42275); assay: Ellman assay, AChE inhibition; type: biochemical; conditions: for inhibition at 100 µM: read-out: AChE %I at 100 μM; for IC50: inhibitor added 30 min before
T2 construct: AChE from electric eel; from tissue
Procedure: as §3, §4

[5] = target: human BuChE (Homo sapiens, UniProt P06276); assay: Inhibitor kinetics, time dependence of BuChE carbamylation; type: biochemical; conditions: r^2 > 0.99
Procedure: Solutions of human BuChE were treated with 7a in the range of 1–50 µM. At successive time intervals, aliquots were removed and the carbamylation reaction stopped by dilution. Residual enzyme activity at each time point and each inhibitor concentration level was estimated by adding the sample to a solution containing butyrylthiocholine substrate.
In order to monitor enzyme carbamylation over time, a 96-well plate was used, with all assay mixtures being made up to a final concentration of 250 μL for monitoring of absorbance at 412 nm. At time 0, 150 μL of inhibitor, at various concentrations, was added to an equal volume of enzyme. Thereafter, at successive time points, 50 μL aliquots were removed from these wells and added to wells containing 200 μL DTNB and BTCI in phosphate buffer pH 8.0. Hydrolysis of substrate was monitored by examining the changes in absorbance in each well at 412 nm over the following 30 s. Negative controls were run alongside the test solutions to take account of non-enzymatic hydrolysis, while positive controls gauged the rate of the uninhibited reaction. At least two replicate wells were run for each concentration of inhibitor. Plots of percentage inhibition over time were prepared using GraphPad Prism 4.03. A first order inhibition constant, kobs was obtained for each concentration of inhibitor by non-linear regression using an exponential decay function.

[6] = system: HT-22 murine hippocampal cell line; type: cell-based; conditions: 24 h, no glutamate; for toxicity / reduction in cell viability, compound alone: 1–25 µM
Procedure: as §1, §2
This test was performed as reported before. Briefly, HT-22 cells were seeded in 96-well plates at a density of 5 × 10^3 per well and cultured for 24 h. […] Absorbance at 560 nm was determined on the next day using a multiwell plate photometer (Spectra Fluor Plus, Tecan, Crailsheim, Germany). The results of these cell viability assays were expressed as percentages relative to untreated control cells. […]

[7] = Oxygen radical absorbance capacity (ORAC) assay; type: physicochemical; conditions: for ORAC antioxidant capacity: TE = 1 equals trolox
Procedure: The antioxidant capacity of 7d and 8a was assessed directly using the oxygen radical absorbance capacity (ORAC) assay, in which the physicochemical ability of the test compounds to scavenge radicals and quench fluorescein […] is quantified and related to so-called trolox equivalents (TE = 1 represents the antioxidant equivalence to trolox, a water-soluble Vitamin E derivative). Compound 7d was 0.163 ± 0.146, 8a, 0.635 ± 0.020, thus showing a very weak ORAC for the lipoate and a weak, but significant, effect for the ferulic acid derivative. The lack of activity of the lipoate in the non-cellular ORAC assay is not surprising as its anti-oxidant effects are mainly related to cellular or mitochondria related processes.
Compounds were assessed for antioxidant capacity using the standard ORAC assay performed as described previously.

[8] = inhibitor added 30 min before, read-out: BChE IC50
[9] = read-out: BChE pIC50 ± SEM (converted)

T2 sequence (O42275 24-633): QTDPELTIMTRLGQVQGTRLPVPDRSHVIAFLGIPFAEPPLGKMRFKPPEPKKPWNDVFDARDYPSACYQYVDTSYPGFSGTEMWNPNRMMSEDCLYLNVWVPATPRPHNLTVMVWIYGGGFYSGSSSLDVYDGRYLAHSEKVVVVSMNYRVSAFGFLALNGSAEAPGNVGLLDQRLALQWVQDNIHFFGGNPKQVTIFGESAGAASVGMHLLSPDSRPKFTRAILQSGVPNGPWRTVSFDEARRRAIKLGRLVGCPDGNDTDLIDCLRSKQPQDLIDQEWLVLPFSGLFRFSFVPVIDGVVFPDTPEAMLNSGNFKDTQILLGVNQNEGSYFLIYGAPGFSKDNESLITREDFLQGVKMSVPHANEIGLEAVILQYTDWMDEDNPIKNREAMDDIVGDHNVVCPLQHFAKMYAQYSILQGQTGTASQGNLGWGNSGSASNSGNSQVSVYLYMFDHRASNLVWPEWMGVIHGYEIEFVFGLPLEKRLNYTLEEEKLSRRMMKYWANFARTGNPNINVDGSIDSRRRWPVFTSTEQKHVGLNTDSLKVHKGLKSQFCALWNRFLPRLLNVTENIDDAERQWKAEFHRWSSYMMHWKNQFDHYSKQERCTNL
T1 sequence (P06276 29-602): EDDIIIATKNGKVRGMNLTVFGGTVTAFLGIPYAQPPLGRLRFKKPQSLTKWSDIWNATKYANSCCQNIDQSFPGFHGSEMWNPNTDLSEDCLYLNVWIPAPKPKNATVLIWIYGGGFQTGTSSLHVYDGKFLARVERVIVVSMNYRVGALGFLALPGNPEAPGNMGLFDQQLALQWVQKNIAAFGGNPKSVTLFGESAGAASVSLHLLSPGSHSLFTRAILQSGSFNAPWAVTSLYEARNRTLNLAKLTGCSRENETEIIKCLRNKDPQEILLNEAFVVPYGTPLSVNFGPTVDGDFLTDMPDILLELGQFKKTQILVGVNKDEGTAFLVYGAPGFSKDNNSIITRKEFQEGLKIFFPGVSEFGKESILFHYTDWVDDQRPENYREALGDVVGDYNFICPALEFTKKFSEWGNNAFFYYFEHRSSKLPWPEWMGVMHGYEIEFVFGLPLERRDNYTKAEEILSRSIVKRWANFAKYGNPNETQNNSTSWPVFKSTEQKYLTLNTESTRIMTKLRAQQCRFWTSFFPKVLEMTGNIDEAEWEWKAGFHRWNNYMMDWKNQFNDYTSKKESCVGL
Chain of human BuChE (P06276 29-602): as above

Row | Structure (SMILES) | IC50 [3, 8] [µM] | inhibition at 100 µM ([4]; 100 μM, n = 3) [%] | IC50 [3, 9] [µM] | also measured
1 | O=C(NCc1ccccc1)OC1COC2C(OC(=O)c3ccccc3O)COC12 (centres unmarked) [Isosorbide-2-benzyl carbamate-5-salicylate] |  |  |  | IC50 ([1]; read-out: IC50 for BuChE): < 0.15 nM
2 | O=c1c(O)c(-c2ccc(O)c(O)c2)oc2cc(O)cc(O)c12 [Quercetin, quercetin, reference compound] |  |  |  | viability at 25 µM ([2]; Mus musculus, HT-22, compound 25 µM, read-out: cell viability after rescue from glutamate): ~80%
3 | O=C(CCCCC1CCSS1)O[C@@H]1CO[C@H]2[C@@H]1OC[C@@H]2OC(=O)NCc1ccccc1 (some centres unmarked) [Compound 7a, Isosorbide-2-benzylcarbamate-5-lipoic acid ester] | 0.15 | 30.8 |  | Selectivity [3]: >667; pseudo first order rate constant of BuChE inhibition ([5]; inhibitor 10 µM): 0.068 min⁻¹; pseudo first order rate constant of BuChE inhibition ([5]; inhibitor 50 µM): 0.198 min⁻¹; concentration range with neuroprotective effect ([2]; tested at 1, 5, 10 and 25 µM): 5 to 25 µM and > 5 µM
4 | COc1cc(/C=C/C(=O)O[C@@H]2CO[C@H]3[C@@H]2OC[C@@H]3OC(=O)Nc2ccccc2)ccc1O [Compound 8b, Isosorbide-2-phenylcarbanate-5-ferulate] | 29.2 |  | 26.3 | Selectivity [3]: 0.92; IC50 ([4]; n = 3): 27.1 ± 11.3 µM
5 | CCCCNC(=O)O[C@H]1CO[C@H]2[C@@H]1OC[C@H]2OC(=O)CCCCC1CCSS1 (some centres unmarked) [Compound 7c, Isosorbide-2-butylcarbamate-5-lipoic acid ester] | 0.17 | 68.7 | 0.209 | neuroprotective effect ([2]; 1–25 µM): showed some effects
6 | O=C(O)CCCCC1CCSS1 (centres unmarked) [Lipoic acid, lipoic acid, reference compound] |  |  |  | toxicity / reduction in cell viability, compound alone [6]: non-toxic; neuroprotective effect ([2]; compound 5 µM): not effective
7 | O=C(Nc1ccccc1)O[C@H]1CO[C@H]2[C@@H]1OC[C@H]2O [Compound 6b, Isosorbide-2-phenylcarbamate] | > 100 | 25.3 |  | 
8 | CCNC(=O)O[C@H]1CO[C@H]2[C@@H]1OC[C@H]2O [Compound 6d, Isosorbide-2-ethylcarbamate] | 46.9 | 22 | 46.8 | 
9 | CCNC(=O)O[C@H]1CO[C@H]2[C@@H]1OC[C@H]2OC(=O)CCCCC1CCSS1 (some centres unmarked) [Compound 7d, Isosorbide-2-ethylcarbamate-5-lipoic acid ester] | 5.71 | 84.1 | 5.75 | neuroprotective effect ([2]; 1–25 µM): showed some effects; ORAC antioxidant effect [7]: not active; ORAC antioxidant capacity [7]: 0.163 ± 0.146 Trolox Equivalent
10 | CCNC(=O)O[C@H]1CO[C@H]2[C@@H]1OC[C@H]2OC(=O)/C=C/c1ccc(O)c(OC)c1 [Compound 8d, Isosorbide-2-ethylcarbanate-5-ferulate] | 95 |  | 95.5 | reduction in cell viability, compound alone ([6]; 25 µM): significant
11 | O=C(NCc1ccccc1)O[C@H]1CO[C@H]2[C@@H]1OC[C@H]2O [Compound 6a, Isosorbide-2-benzylcarbamate] | 25.8 |  |  | Selectivity [3]: 1.45; IC50 ([4]; n = 3): 37.5 ± 7.4 µM
12 | COc1cc(/C=C/C(=O)O[C@@H]2CO[C@H]3[C@@H]2OC[C@@H]3OC(=O)NCc2ccccc2)ccc1O [Compound 8a, Isosorbide-2-benzylcarbanate-5-ferulate] | 1.82 | 25.2 | 1.62 | Selectivity [3]: >55; ORAC antioxidant capacity [7]: 0.635 ± 0.020 Trolox Equivalent
13 | CCCCNC(=O)O[C@H]1CO[C@H]2[C@@H]1OC[C@H]2O [Compound 6c, Isosorbide-2-butylcarbamate] | 28 |  | 28.2 | inhibition at 100 µM [4]: 30%
14 | O=C(CCCCC1CCSS1)O[C@@H]1CO[C@H]2[C@@H]1OC[C@@H]2OC(=O)Nc1ccccc1 (some centres unmarked) [Compound 7b, Isosorbide-2-phenylcarbamate-5-lipoic acid ester] | 13.3 | 18.8 | 13.2 | Selectivity [3]: >7.5; neuroprotective effect ([2]; 1–25 µM): neuroprotective effect could not be observed
15 | COc1cc(/C=C/C(=O)O)ccc1O [Ferulic acid, ferulic acid, reference compound] |  |  |  | toxicity / reduction in cell viability, compound alone [6]: non-toxic; neuroprotective effect ([2]; 1–25 µM): not active
16 | O=C(NCc1ccccc1)O[C@H]1CO[C@H]2[C@@H]1OC[C@H]2OC(=O)c1ccccc1 [Compound 1] |  |  |  | IC50 ([1]; read-out: IC50 BuChE): 4.3 nM
17 | CCCCNC(=O)O[C@H]1CO[C@H]2[C@@H]1OC[C@H]2OC(=O)/C=C/c1ccc(O)c(OC)c1 [Compound 8c, Isosorbide-2-butylcarbanate-5-ferulate] | 0.43 |  | 0.389 | 

From publication PMC6273432, “Novel Selective Butyrylcholinesterase Inhibitors Incorporating Antioxidant Functionalities as Potential Bimodal Therapeutics for Alzheimer’s Disease” (Molecules, 2016)
